Results: ChEMBL document CHEMBL1128715, “Synthesis, resolution, and biological evaluation of the four stereoisomers of 4-methylglutamic acid: selective probes of kainate receptors” (J Med Chem, 1995)

Target: Glutamate receptor ionotropic, NMDA 2C (Rattus norvegicus, UniProt Q00961)
Assay: Ability to inhibit [3H]CGS-19,755 binding to NMDA receptors.

Sequence of Glutamate receptor ionotropic, NMDA 2C (Q00961 whole entry): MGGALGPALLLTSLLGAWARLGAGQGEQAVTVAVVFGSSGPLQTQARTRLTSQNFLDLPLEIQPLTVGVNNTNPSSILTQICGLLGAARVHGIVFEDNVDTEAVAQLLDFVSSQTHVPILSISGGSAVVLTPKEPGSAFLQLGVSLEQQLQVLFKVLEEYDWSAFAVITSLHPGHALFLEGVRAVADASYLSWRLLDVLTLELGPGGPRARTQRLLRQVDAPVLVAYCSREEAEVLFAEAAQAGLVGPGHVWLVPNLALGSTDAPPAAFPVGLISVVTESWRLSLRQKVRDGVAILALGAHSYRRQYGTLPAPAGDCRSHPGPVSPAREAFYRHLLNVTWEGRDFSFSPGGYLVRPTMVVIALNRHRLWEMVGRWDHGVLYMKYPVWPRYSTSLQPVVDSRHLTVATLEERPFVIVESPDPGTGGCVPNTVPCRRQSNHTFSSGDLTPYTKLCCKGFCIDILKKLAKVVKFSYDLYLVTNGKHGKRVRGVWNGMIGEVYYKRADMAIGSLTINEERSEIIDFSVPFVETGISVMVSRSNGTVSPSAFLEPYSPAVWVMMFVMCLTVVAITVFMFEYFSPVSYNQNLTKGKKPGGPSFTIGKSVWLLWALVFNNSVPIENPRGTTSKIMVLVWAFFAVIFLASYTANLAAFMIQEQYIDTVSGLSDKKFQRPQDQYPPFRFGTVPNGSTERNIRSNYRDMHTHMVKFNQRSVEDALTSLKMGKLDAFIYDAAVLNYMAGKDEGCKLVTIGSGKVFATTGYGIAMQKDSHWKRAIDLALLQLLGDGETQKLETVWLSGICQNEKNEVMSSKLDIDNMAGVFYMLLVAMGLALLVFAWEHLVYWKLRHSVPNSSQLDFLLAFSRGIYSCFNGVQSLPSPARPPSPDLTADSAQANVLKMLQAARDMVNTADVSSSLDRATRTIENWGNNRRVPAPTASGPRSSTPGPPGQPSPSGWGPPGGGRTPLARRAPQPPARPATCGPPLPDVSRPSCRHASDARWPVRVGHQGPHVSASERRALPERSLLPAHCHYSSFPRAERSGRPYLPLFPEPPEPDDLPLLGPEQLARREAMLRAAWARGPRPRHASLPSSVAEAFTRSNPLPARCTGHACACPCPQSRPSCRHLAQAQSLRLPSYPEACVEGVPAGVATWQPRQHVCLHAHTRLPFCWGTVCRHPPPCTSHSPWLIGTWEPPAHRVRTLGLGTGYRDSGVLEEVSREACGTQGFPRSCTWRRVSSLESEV

C[C@H](C[C@H](N)C(=O)O)C(=O)O [2S,4R-4-METHYLGLUTAMATE]
IC50: > 7 µM
